Reference: patent US20260193227A1, “THERAPEUTIC COMPOUNDS AND METHODS” (UNIVERSITY OF IOWA RESEARCH FOUNDATION, priority 2022, published 2026)

Experiments:
[1] = tested on: EUFA423F HA cells; conditions: Clark et al. 2012; Howlett et al. 2002; cited from earlier work
[2] = Solubility in cell culture medium; assay type: physicochemical; conditions: for solubility: plasma or biological fluid
[3] = tested on: EUFA423F cells; test: CellTiter-Glo cell viability, BRCA2-mutated cells; assay type: cell-based, human; conditions: for toxicity towards EUFA423 cells: BRCA2-mutated cells, yes/no; for toxicity / selective toxicity towards BRCA2-mutated cells in cell viability assays: EUFA423F versus EUFA423F HA, CellTiter-Glo, 72 hours
Source text: (§1) Cell lines: EUFA423F cells that are derived from a Fanconi Anemia patient with complementation group D1 and have biallelic mutations (7691 insAT and 9900 insA) in BRCA2 that result in two different truncated forms of BRCA2 (Howlett N G, et al., Science (New York, NY). 2002; 297(5581):606-9) and its counterpart complemented with expression vector for full-length BRCA2 (EUFA HA) were a generous gift from Dr. Simon Powell, Molecular Biology Program, Radiation Oncology, Sloan-Kettering Cancer Center, New York, NY).
(§2) Cell proliferation assay: Selective toxicity of the compounds towards human BRCA2 deficient cells was tested in EUFA423F and its complement EUFA423F HA using CellTiter-Glo® Luminescent Cell Viability Assay (Promega, Madison, WI). The cell lines were maintained in DMEM (Gibco/ThermoFisher Scientific, Waltham, MA) supplemented with 10% FBS and 10 mM HEPES (Gibco/ThermoFisher Scientific, Waltham, MA). EUFA423F HA cells were routinely supplemented with G418 in order to maintain the BRCA2 expression plasmid. Both cell lines were seeded in sterile tissue culture treated, white opaque 384-well plates (Perkin Elmer Inc., Waltham, MA) 3000 cells/well for EUFA423F HA and 2500 cells/well for EUFA423F) and allowed to adhere for 24 hours. Compounds dissolved in DMSO were added in the concentration range of 0-100 μM. Controls were treated with equivalent DMSO volumes. The cells were treated with compounds for 72 hours (to ensure that all cells experienced at least two S-phases). Post treatment, the cells were washed, treated with the CellTiter-Glo® reagent was added and the plate was analyzed as using a Gen5 (ver2.1) luminosity plate reader. The luminescence that reports on ATP generation by the surviving cells was normalized for the DMSO treated control as 100%. The normalized luminescence (average±standard deviation for at least three independent measurements obtained with different cell passages) was plotted in GraphPad Prism as a function of compound concentration. Clonogenic Survival: EUFA423F and EUFA423F HA cells were seeded in a 96 well plate. Compounds dissolved in DMSO were added to final concentrations of 0, 50, and 100 μM for the compound of Example 8 and the compound of Example 1, and 0, 5, and 10 μM for the compounds of Examples 2-7. The cells were treated with compounds for 72 hours. Post treatment, cell cultures were harvested by collecting all non-adherent cells in the well, trypsinization of all adherent cells, combining, pelleting and then resuspending in fresh media. Cultures treated with DMSO only were subsequently counted using a hemocytometer and plated at a density of 2000, 200 and 20 cells per well in 6-well culture plates, equal volumes of cultures were plated each inhibitor concentration. Each treatment and cell density conditions for both cell lines were plated in triplicate. After expanding the colonies for a period of 8 days, cultures were fixed with a solution of 70% ethanol and crystal violet for clonogenic survival analysis. Pictures of individual wells were taken using GelCount (Version 1.3.0.4) by Oxford Optronix (Abingdon UK). A colony had to contain at least 50 cells to be counted. The number of surviving colonies following treatment are presented as a percentage of number of colonies in the experiment where the cells were treated with DMSO only.

[4] = molecular target: T1, RAD52-ssDNA interaction (Homo sapiens, UniProt P43351); test: FRET-based inhibition of the RAD52-ssDNA interaction; assay type: binding; conditions: for IC50: 6 nM RAD52, 1 nM Cy3-dT30-Cy5 ssDNA, 25° C., value ± fitting error; for selectivity towards RAD52 over RPA: in vitro FRET-based assays
T1 construct: 6xHis; made in house
T1 sequence (P43351 1-418): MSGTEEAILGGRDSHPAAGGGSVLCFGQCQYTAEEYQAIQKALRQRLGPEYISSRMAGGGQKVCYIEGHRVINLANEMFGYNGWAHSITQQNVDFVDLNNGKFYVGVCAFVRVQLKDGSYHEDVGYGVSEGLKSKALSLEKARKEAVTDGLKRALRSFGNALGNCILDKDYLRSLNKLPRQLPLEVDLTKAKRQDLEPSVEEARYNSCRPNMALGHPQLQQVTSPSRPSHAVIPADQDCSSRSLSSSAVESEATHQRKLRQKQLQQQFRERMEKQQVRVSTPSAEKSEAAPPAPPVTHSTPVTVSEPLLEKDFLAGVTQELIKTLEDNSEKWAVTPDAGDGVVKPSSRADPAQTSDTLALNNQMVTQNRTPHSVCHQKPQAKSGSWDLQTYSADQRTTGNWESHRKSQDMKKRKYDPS
Experimental: (§3) Proteins: The 6×His-tagged human RAD52 proteins (wild type and mutants) and untagged human RPA were expressed and purified as previously described in (Hengel S R, eLife. 2016; 5; Grimme J M, et al., Nucleic Acids Res. 2010; 38(9):2917-30; and Henricksen L A, et al., The Journal of biological chemistry. 1994; 269(15):11121-32). RPA and RAD52 protein concentrations were determined by measuring absorbance at 280 nm using extinction coefficients of 88,830 M^−1 cm^−1 and 40,470 M^−1 cm^−1, respectively.
(§4) FRET-based DNA binding and inhibition assays: FRET-based that monitor the RAD52-ssDNA, RPA-ssDNA and RAD52-RPA-ssDNA binding were carried out as previously described (Hengel S R, eLife. 2016; 5; Grimme J M, et al., Nucleic Acids Res. 2010; 38(9):2917-30; and Grimme J M, Spies M. FRET-based assays to monitor DNA binding and annealing by Rad52 recombination mediator protein. Methods in molecular biology (Clifton, NJ). 2011; 745:463-83) using Cary Eclipse Spectrofluorimeter (Agilent) at 25° C., in 5 mm quartz cuvettes, and in buffer containing 30 mM Tris-Acetate (pH 7.5) and 1 mM DTT. Cy3 dye was excited at 530 nm and its emission was monitored at 565 nm. Emission of Cy5 acceptor fluorophore excited through the energy transfer from Cy3 donor is monitored at 660 nm simultaneously with emission of Cy3 dye. Both the excitation and the emission slits were set to 10 nm. All experiments were carried out using 1 nM (molecules) Cy3-dT30-Cy5 ssDNA. The optimal concentrations of the RAD52 (6 nM) and RPA (1 nM) proteins were selected by titrating the respective protein into 1 nM Cy3-dT30-Cy5 solution, and chosen based on the largest separation of the FRET values corresponding to the protein bound and free DNA.
(§5) The inhibition of the RAD52-ssDNA, RPA-ssDNA and RAD52-RPA-ssDNA complexes was evaluated by titrating each compound to the respective complex, measuring Cy3 and Cy5 fluorescence, and calculating FRET as previously described (Hengel, S. R., et al., eLife, 5).
(§6) Spectral properties of many compounds overlapped with the Cy3 and Cy5 fluorescence. To correct the calculated FRET values for the compound signal, the fluorogenic compounds were titrated into buffer and into solution of 1 nM Cy3-dT30-Cy5. For all tested compounds, the change in the signal in the Cy3 and Cy5 channels with and without Cy3/Cy5-labeled DNA present was the same. […] To account for the dye fluorescence, for each compound concentration, the apparent change in FRET of the ssDNA in the presence the compound was subtracted from the respective FRET signal of the RAD52-ssDNA, RPA-ssDNA or RAD52-ssDNA-RPA complex at the same inhibitor concentration. The IC50 values were calculated by fitting the corrected FRET data to the four-parameter dose response model using GraphPad Prism. All data are shown as average for at least three independent experiments ±standard deviation. The IC50 values are presented with their respective fitting error.

[5] = molecular target: T2, RPA-ssDNA-RAD52 complex (Homo sapiens, UniProt P43351); test: FRET-based inhibition of the RPA-ssDNA-RAD52 complex; assay type: binding; conditions: for IC50: value ± fitting error, N/A = no activity
T2 construct: 6xHis; made in house
T2 sequence (P43351 1-418): T1 sequence (P43351 1-418)
Experimental: as §3, §4, §5, §6

[6] = molecular target: T3, RPA-ssDNA interaction (Homo sapiens, UniProt P27694); test: FRET-based inhibition of the RPA-ssDNA interaction; assay type: binding; conditions: 1 nM RPA, 1 nM Cy3-dT30-Cy5 ssDNA; value ± fitting error; N/A = no activity
T3 construct: made in house
T3 sequence (P27694 whole entry): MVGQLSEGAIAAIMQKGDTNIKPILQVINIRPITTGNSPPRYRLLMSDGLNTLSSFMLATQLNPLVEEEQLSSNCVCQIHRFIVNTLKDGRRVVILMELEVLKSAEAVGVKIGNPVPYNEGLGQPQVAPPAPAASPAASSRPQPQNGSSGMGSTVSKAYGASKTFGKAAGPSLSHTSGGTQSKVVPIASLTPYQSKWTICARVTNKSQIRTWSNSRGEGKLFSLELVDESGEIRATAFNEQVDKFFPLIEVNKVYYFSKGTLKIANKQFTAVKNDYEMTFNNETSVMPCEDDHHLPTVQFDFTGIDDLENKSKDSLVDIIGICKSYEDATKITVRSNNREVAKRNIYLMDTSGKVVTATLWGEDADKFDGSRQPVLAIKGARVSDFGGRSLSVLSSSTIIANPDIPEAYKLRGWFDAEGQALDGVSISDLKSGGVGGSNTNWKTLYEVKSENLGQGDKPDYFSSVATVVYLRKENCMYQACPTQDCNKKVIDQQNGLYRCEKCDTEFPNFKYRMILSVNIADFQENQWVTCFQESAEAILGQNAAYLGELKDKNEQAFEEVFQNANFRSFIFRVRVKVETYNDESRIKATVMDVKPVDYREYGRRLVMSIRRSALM
T3 sequence (P15927 whole entry partner): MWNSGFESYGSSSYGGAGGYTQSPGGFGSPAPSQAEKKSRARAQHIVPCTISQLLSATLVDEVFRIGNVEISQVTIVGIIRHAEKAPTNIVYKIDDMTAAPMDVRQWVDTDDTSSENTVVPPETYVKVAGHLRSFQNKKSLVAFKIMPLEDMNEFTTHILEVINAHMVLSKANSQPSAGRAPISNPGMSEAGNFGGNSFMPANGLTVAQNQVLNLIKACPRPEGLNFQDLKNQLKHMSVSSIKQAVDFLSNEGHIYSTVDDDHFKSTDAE
T3 sequence (P35244 whole entry partner): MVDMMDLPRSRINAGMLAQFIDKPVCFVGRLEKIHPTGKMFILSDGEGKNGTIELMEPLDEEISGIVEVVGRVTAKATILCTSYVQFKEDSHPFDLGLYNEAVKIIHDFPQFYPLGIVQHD
Experimental: as §3, §4, §5, §6

[7] = tested on: EUFA423F HA cells; test: CellTiter-Glo cell viability, BRCA2-complemented cells; assay type: cell-based, human; conditions: yes/no
Source text: as §1, §2

[8] = tested on: EUFA423F cells; conditions: Clark et al. 2012; cited from earlier work
[9] = tested on: BRCA2-depleted cells; conditions: Hengel et al. 2016; cited from earlier work
[10] = molecular target: T1, RAD52-ssDNA interaction; conditions: Hengel et al. 2016; cited from earlier work

Row | SMILES | toxicity towards EUFA423 cells [3] | toxicity / selective toxicity towards BRCA2-mutated cells in cell viability assays [3] | IC50 [4] [µM] | selectivity towards RAD52 over RPA [4] | IC50 [5] [µM] | IC50 [6] [µM] | toxicity towards EUFA423 HA (BRCA2-complemented cells) [7] | also measured
1 | CO[C@@]12[C@H](COC(N)=O)C3=C(C(=O)C(C)=C(N)C3=O)N1C[C@@H]1N[C@@H]12 [mitomycin C] | – | – | – | – | – | – | – | sensitivity of the BRCA2-complemented (HA) cell line to the agent [1]: resistant
2 | Cc1cc([N+](=O)[O-])cn(CC(=O)c2c[nH]c3ccc(Cl)cc23)c1=O [Example 3] | yes | selectively toxic to BRCA2-mutated cells | 7.97 ± 0.84 | shows selectivity towards RAD52 over RPA | 7 ± 0.29 | 15.9 ± 1.4 | no | solubility [2]: > 10 µM
3 | C[C@]1(c2nc3c(C(N)=O)cccc3[nH]2)CCCN1 [veliparib] | – | – | – | – | – | – | – | sensitivity of EUFA423F cells to the agent [8]: sensitive; sensitivity of the BRCA2-complemented (HA) cell line to the agent [1]: resistant
4 | Cc1ccn(CC(=O)c2c[nH]c3ccc(F)cc23)c(=O)c1[N+](=O)[O-] [Example 4] | yes | selectively toxic to BRCA2-mutated cells | – | shows selectivity towards RAD52 over RPA | – | – | no | solubility [2]: > 10 µM
5 | Cc1c([N+](=O)[O-])ccn(CC(=O)c2c[nH]c3ccc(Br)cc23)c1=O [Example 6] | no | failed to inhibit both BRCA2-mutated and BRCA2-complemented cells | 2.02 ± 0.12 | shows selectivity towards RAD52 over RPA | 0.76 ± 0.05 | 1.12 ± 0.13 | no | solubility / aggregation in cell culture medium [2]: poorly soluble in cell culture medium
6 | O=C(Cn1cc([N+](=O)[O-])cc(F)c1=O)c1c[nH]c2ccc(F)cc12 [Example 2] | yes | – | – | shows selectivity towards RAD52 over RPA | – | – | no | toxicity / selective toxicity towards BRCA2-mutated cells in cell viability assays ([3]; listed as Z58-54): selectively toxic to BRCA2-mutated cells; toxicity / selective toxicity towards BRCA2-mutated cells in cell viability assays ([3]; listed as Z5862216254): effective and specific in cell viability assays; effect on the RPA-ssDNA-RAD52 complex ([5]; FRET titration): unable to dislodge RAD52
7 | Oc1cc(O)c2c(c1)O[C@H](c1cc(O)c(O)c(O)c1)[C@H](O)C2 [EGC, epigallochatechin] | – | – | – | – | – | – | – | efficacy in BRCA2-depleted cells [9]: effective; competition with ssDNA binding to RAD52 [10]: competed with ssDNA binding to RAD52
8 | O=C(Cn1cc([N+](=O)[O-])cc(Br)c1=O)c1c[nH]c2ccc(Cl)cc12 [Example 7] | yes | selectively toxic to BRCA2-mutated cells | 2.84 ± 0.32 | shows selectivity towards RAD52 over RPA | 4.55 ± 0.16 | 28.9 ± 4 | no | –
9 | O=C(Cn1cc([N+](=O)[O-])cc(Cl)c1=O)c1c[nH]c2ccc(F)cc12 [Example 5] | yes | selectively toxic to BRCA2-mutated cells | – | shows selectivity towards RAD52 over RPA | – | – | no | –
